According to patent publication US20100120700A1, “METHODS AND COMPOSITIONS FOR TREATING CERVICAL CANCER” (priority 2000, published 2010):
“And” between values parts separate entries of the source, which are not always exact repeats. Equal entries are not always repeated.

How the values were obtained:
Test in all cases: G assay PDZ-PL binding
[1] = target: T1, CARD14 domain 1 (Homo sapiens, UniProt Q9BXL6); conditions: peptide 10 uM, protein 5
T1 construct: made in house; host or cells: E. coli (DH5alpha, BL21 or JM109)
Protocol: (§1) (1) A PDZ-domain polypeptide is bound to a surface, e.g. a protein binding surface. In a preferred embodiment, a GST/PDZ fusion protein containing one or more PDZ domains is bound to a polystyrene 96-well plate. […] In one embodiment, the GST/PDZ fusion protein is bound via an anti-GST antibody that is coated onto the 96-well plate. Adequate binding to the plate can be achieved when: • a. 100 uL per well of 5 ug/mL goat anti-GST polyclonal antibody (Pierce) in PBS is added to a polystyrene 96-well plate (e.g., Num Polysorb) at 4° C. for 12 hours. • b. The plate is blocked by addition of 200 uL per well of PBS/BSA for 2 hours at 4° C. • c. The plate is washed 3 times with PBS. • d. 50 uL per well of 5 ug/mL GST/PDZ fusion protein) or, as a negative control, GST polypeptide alone (i.e. not a fusion protein) in PBS/BSA is added to the plate for 2 hours at 4° C. • e. The plate is again washed 3 times with PBS.
(§2) (2) Biotinylated PL peptides are allowed to react with the surface by addition of 50 uL per well of 20 uM solution of the biotinylated peptide in PBS/BSA for 10 minutes at 4° C., followed by an additional 20 minute incubation at 25° C.
(§3) (3) The binding of the biotinylated peptide to the GST/PDZ fusion protein surface can be detected using a variety of methods and detectors known to one of skill in the art. In one embodiment, 100 uL per well of 0.5 ug/mL streptavidin-horse radish peroxidase (HRP) conjugate dissolved in BSA/PBS is added and allowed to react for 20 minutes at 4° C. The plate is then washed 5 times with 50 mM Tris pH 8.0 containing 0.2% Tween 20, and developed by addition of 100 uL per well of HRP-substrate solution (TMB, Dako) for 20 minutes at room temperature (RT). The reaction of the HRP and its substrate is terminated by addition of 100 uL per well of 1M sulfuric acid, and the absorbance of each well of the plate is read at 450 nm.
(§4) (4) Specific binding of a PL peptide and a PDZ domain polypeptide is determined by comparing the signal from the well(s) in which the PL peptide and PDZ domain polypeptide are combined, with the background signal(s). The background signal is the signal found in the negative control(s). Typically a specific or selective reaction will be at least twice background signal, more typically more than 5 times background, and most typically 10 or more times the background signal. In addition, a statistically significant reaction will involve multiple measurements of the reaction with the signal and the background differing by at least two standard errors, more typically four standard errors, and most typically six or more standard errors. Correspondingly, a statistical test (e.g. a T-test) comparing repeated measurements of the signal with-repeated measurements of the background will result in a p-value<0.05, more typically a p-value<0.01, and most typically a p-value<0.001 or less. As noted, in an embodiment of the “G” assay, the signal from binding of a given PL peptide to immobilized (surface bound) GST polypeptide alone is one suitable negative control (sometimes referred to as “B 1”). Because all measurement are done in multiples (i.e. at least duplicate) the arithmetic mean (or, equivalently, average.) of several measurements is used in determining the binding, and the standard error of the mean is used in determining the probable error in the measurement of the binding. The standard error of the mean of N measurements equals the square root of the following: the sum of the squares of the difference between each measurement and the mean, divided by the product of (N) and (N−1). Thus, in one embodiment, specific binding of the PDZ protein to the platebound peptide is determined by comparing the mean signal (“mean S”) and standard error of the signal (“SE”) for a particular PL-PDZ combination with the mean B1. […]

[2] = target: T2, EBP50 #311.1 domain 1 (Homo sapiens, UniProt O14745); conditions: peptide 10 uM, protein 5
T2 construct: made in house; host or cells: E. coli (DH5alpha or BL-21)
Protocol: as §1, §2, §3, §4

[3] = target: T3, INADL domain 4 (Homo sapiens, UniProt Q8NI35); conditions: peptide 10 uM, protein 5
T3 construct: made in house; host or cells: E. coli (DH5alpha, BL21 or JM109)
Protocol: as §1, §2, §3, §4

[4] = target: T4, INADL domain 8 (Homo sapiens, UniProt Q8NI35); conditions: peptide 10 uM, protein 5
T4 construct: made in house; host or cells: E. coli (DH5alpha or BL-21)
Protocol: as §1, §2, §3, §4

[5] = target: T5, KIAA0382 domain 1 (Homo sapiens, UniProt Q9NZN5); conditions: peptide 10 uM, protein 5
T5 construct: made in house; host or cells: E. coli (DH5alpha, BL21 or JM109), vector pGEX-3X
Protocol: as §1, §2, §3, §4

[6] = target: T6, KIAA0973 #288.2 domain 1 (Homo sapiens, UniProt Q9Y2H9); conditions: peptide 10 uM, protein 5
T6 construct: made in house; host or cells: E. coli (DH5alpha, BL21 or JM109)
Protocol: as §1, §2, §3, §4

[7] = target: T7, KIAA1719 domain 3 (Homo sapiens, UniProt Q9C0E4); conditions: peptide 10 uM, protein 5
T7 construct: made in house; host or cells: E. coli (DH5alpha, BL21 or JM109)
Protocol: as §1, §2, §3, §4

[8] = target: T8, PAR3 #278.1 domain 3 (Homo sapiens, UniProt Q8TEW0); conditions: peptide 10 uM, protein 5
T8 construct: made in house; host or cells: E. coli (DH5alpha, BL21 or JM109)
Protocol: as §1, §2, §3, §4

[9] = target: T9, PDZ-73 domain 2 (Homo sapiens, UniProt Q9Y6N9); conditions: peptide 10 uM, protein 5
T9 construct: made in house; host or cells: E. coli (DH5alpha, BL21 or JM109), vector pGEX-3X
Protocol: as §1, §2, §3, §4

[10] = target: T10, PDZK1 domain 3 (Homo sapiens, UniProt Q5T2W1); conditions: peptide 10 uM, protein 5
T10 construct: made in house; host or cells: E. coli (DH5alpha, BL21 or JM109)
Protocol: as §1, §2, §3, §4

[11] = target: T11, PSD95 domain 1, 2, 3 (Homo sapiens, UniProt P78352); conditions: peptide 10 uM, protein 5
T11 construct: the DNA portion cloned represents the PDZ domains and the cDNA portion located between individual domains; made in house; host or cells: E. coli (DH5alpha, BL21 or JM109)
Protocol: as §1, §2, §3, §4

[12] = target: T12, PSD95 domain 2 (Homo sapiens, UniProt P78352); conditions: vs GST only well, peptide 10 uM, protein 5
T12 construct: made in house; host or cells: E. coli (DH5alpha, BL21 or JM109)
Protocol: as §1, §2, §3, §4

[13] = target: T13, PTN-4 domain 1 (Homo sapiens, UniProt P29074); conditions: peptide 10 uM, protein 5
T13 construct: made in house; host or cells: E. coli (DH5alpha, BL21 or JM109), vector pGEX-3X
Protocol: as §1, §2, §3, §4

[14] = target: T14, Serine Protease domain 1 (Homo sapiens, UniProt O43464); conditions: peptide 10 uM, protein 5
T14 construct: made in house; host or cells: E. coli (DH5alpha, BL21 or JM109)
Protocol: as §1, §2, §3, §4

T5 sequence (Q9NZN5 with tags, fused parts or gaps): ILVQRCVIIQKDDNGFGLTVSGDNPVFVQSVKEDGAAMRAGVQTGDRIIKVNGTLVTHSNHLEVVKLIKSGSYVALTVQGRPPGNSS
T6 sequence (Q9Y2H9 963-1055): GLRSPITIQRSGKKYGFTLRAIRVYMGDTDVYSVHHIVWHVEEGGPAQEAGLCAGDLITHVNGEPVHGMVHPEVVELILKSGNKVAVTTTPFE
T4 sequence (Q8NI35 1425-1517): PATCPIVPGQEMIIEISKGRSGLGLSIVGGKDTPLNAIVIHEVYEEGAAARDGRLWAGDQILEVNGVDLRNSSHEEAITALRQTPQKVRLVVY
T2 sequence (O14745 with tags, fused parts or gaps): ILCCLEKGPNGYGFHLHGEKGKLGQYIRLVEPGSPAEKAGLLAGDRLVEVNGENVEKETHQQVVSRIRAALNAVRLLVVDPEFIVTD
T14 sequence (O43464 344-452): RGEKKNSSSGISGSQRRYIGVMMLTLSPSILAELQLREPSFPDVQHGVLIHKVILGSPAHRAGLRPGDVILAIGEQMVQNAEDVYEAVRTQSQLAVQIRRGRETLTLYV
T9 sequence (Q9Y6N9 with tags, fused parts or gaps): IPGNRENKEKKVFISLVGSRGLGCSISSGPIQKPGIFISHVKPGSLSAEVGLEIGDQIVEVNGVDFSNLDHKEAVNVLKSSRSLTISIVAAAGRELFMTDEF
T13 sequence (P29074 518-605): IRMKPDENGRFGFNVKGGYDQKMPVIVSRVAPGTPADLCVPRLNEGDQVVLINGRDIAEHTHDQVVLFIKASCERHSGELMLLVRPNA
T8 sequence (Q8TEW0 579-681): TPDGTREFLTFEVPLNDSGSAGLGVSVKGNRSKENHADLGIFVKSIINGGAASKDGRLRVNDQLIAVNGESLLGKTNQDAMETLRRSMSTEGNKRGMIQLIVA
T7 sequence (Q9C0E4 with tags, fused parts or gaps): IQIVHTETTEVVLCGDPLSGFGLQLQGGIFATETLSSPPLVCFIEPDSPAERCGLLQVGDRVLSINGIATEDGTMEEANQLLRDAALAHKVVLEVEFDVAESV
T3 sequence (Q8NI35 with tags, fused parts or gaps): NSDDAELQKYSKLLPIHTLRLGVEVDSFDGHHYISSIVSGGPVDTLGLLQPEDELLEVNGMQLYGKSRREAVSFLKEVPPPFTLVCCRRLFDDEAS
T1 sequence (Q9BXL6 565-664): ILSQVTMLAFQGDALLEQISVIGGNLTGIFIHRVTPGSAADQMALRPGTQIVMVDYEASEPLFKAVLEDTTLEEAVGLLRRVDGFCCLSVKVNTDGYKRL

20 mer peptide corresponding to the C-terminus of HPV16 E6 (PDZ ligand), biotinylated in binding assays; ends SSRTRRETQL (SEQ ID NO: 13) [HPV E6 #16]
Ave OD ([1]; A450 nm): 0.342
OD S/N ([1]; vs GST only well): 1.52
Ave OD ([2]; A450 nm): 0.4325
OD S/N ([2]; vs GST only well): 2.05
Ave OD ([3]; A450 nm): 0.357
OD S/N ([3]; vs GST only well): 2.15
Ave OD ([4]; A450 nm): 0.3875
OD S/N ([4]; vs GST only well): 1.58
Ave OD ([5]; A450 nm): 0.712 and 0.6995
OD S/N ([5]; vs GST only well): 3.61 and 2.66
Ave OD ([6]; A450 nm): 2.8295 and 3.85
OD S/N ([6]; vs GST only well): 10.11 and 16.42
Ave OD ([7]; A450 nm): 0.346
OD S/N ([7]; vs GST only well): 1.65
Ave OD ([8]; A450 nm): 0.352
OD S/N ([8]; vs GST only well): 1.80
Ave OD ([9]; A450 nm): 0.5615
OD S/N ([9]; vs GST only well): 1.95
Ave OD ([10]; A450 nm): 0.5
OD S/N ([10]; vs GST only well): 1.92
Ave OD ([11]; A450 nm): 3.523 and 3.866
OD S/N ([11]; vs GST only well): 22.58 and 19.67
OD S/N [12]: 12.23 and 12.53
Ave OD ([13]; A450 nm): 0.8085
OD S/N ([13]; vs GST only well): 4.03
Ave OD ([14]; A450 nm): 0.3425
OD S/N ([14]; vs GST only well): 1.55
